The source of these data is ChEMBL document CHEMBL5352392, “Design, synthesis, and biological evaluation of novel dual inhibitors of heat shock protein 90/mammalian target of rapamycin (Hsp90/mTOR) against bladder cancer cells” (Eur J Med Chem, 2022).

The test system of test [1] is J82. As to the kind of experiment: Antiproliferative activity against human J82 cells assessed as inhibition of cell proliferation at 1 uM by CCK8 assay relative to control. In kind it is functional.
Test [2] has as its system T-24. As to the kind of experiment: Antiproliferative activity against human T24 cells assessed as inhibition of cell proliferation at 1 uM by CCK8 assay relative to control. It counts as functional. (In general: Formazan colour is commonly taken as a measure of viable cells.)
Test [3] deals with SW780. The test is described as follows: Antiproliferative activity against human SW780 cells assessed as inhibition of cell proliferation at 1 uM by CCK8 assay relative to control. In kind it is functional.
The target in test [4] is Heat shock protein HSP90 (Homo sapiens, UniProt P07900+P08238). The note with it: dose 100.0 nM.
Description: Inhibition of Hsp90 (unknown origin) at 100 nM by TR-FRET assay relative to control
Test [5] concerns the target Serine/threonine-protein kinase mTOR (Homo sapiens, UniProt P42345). As to the kind of experiment: Inhibition of mTOR (unknown origin) at 100 nM by kinase profiling assay relative to control.

As a reminder, the inhibition is the relative decrease from the control value, in per cent. For the compound `CC(C)c1cc(C(=O)N2CCc3c(sc4nc(-c5ccncc5)nc(N5CCOCC5)c34)C2)c(O)cc1O`, the inhibition at 1 µM in test [1] was 37.8%; in test [2] it was 47.1%; in test [3], 39.5%. In addition, the inhibition in test [4] is 35.4%; in test [5], 49.8%.
With `CC(C)c1cc(C(=O)N2CCc3c(sc4nc(N5CCOCC5)nc(N5CCC(N(C)C)CC5)c34)C2)c(O)cc1O`, the inhibition at 1 µM came to 52.7% in test [1], 55.8% in test [2] and 64.5% in test [3]. Also, the inhibition in test [4] stood at 45.5%; in test [5], 76.7%.
Take `CN1CCc2c(sc3nc(-c4ccncc4)nc(N4CCOCC4)c23)C1`: the inhibition at 1 µM in test [1] worked out at 37.6%; in test [2] it was 30.5%; in test [3], 26.3%. This compound also came in with an inhibition in test [5] of 44.3%.
On to `Cc1ccc(NC(=O)Nc2ccc(-c3nc(N4CCOCC4)c4c5c(sc4n3)CN(C(=O)c3cc(C(C)C)c(O)cc3O)CC5)cc2)cc1`, for which the inhibition at 1 µM in test [1] amounted to 65.8%; in test [2], 67.8%; in test [3], 74.5%. In addition, the inhibition in test [4] came out at 61.6%; in test [5], 71.8%.
Take `CN1CCc2c(sc3nc(-c4ccc(N)cc4)nc(N4CCOCC4)c23)C1`: the inhibition at 1 µM in test [1] was found to be 50.4%; in test [2], 32.8%; in test [3], 20.7%. Besides, in test [5], the inhibition turned out to be 66.2%.
For the compound `CC(C)c1cc(C(=O)N2CCc3c(sc4nc(N5CCOCC5)nc(N5CCC(F)(F)CC5)c34)C2)c(O)cc1O`, the inhibition at 1 µM in test [1] worked out at 49.8%; in test [2], 50.3%; in test [3], 52.1%. The inhibition was determined as 43.6% in test [4] and 45.1% in test [5].
Taken in the same sequence, the figures for `CC(C)c1cc(C(=O)N2CCc3c(sc4nc(-c5ccc(NC(=O)Nc6ccc(C(F)(F)F)cc6)cc5)nc(N5CCOCC5)c34)C2)c(O)cc1O` were 69%, 61.3%, 61.3%, 62.8% and 66.4%.
On to `CC(C)c1cc(C(=O)N2CCc3c(sc4nc(N5CCC(F)(F)CC5)nc(N5CCOCC5)c34)C2)c(O)cc1O`, for which the inhibition at 1 µM in test [1] amounted to 45%; in test [2] it was 34.4%; in test [3], 37.9%. The inhibition was 36.3% in test [4] and 41.3% in test [5].
`CC(C)c1cc(C(=O)N2CCc3c(sc4nc(-c5ccc(NC(=O)N6CCOCC6)cc5)nc(N5CCOCC5)c34)C2)c(O)cc1O`: the inhibition at 1 µM stood at 67.2% in test [1], 44.8% in test [2] and 49.8% in test [3]. Moreover, the inhibition in test [4] turned out to be 58.4%; in test [5] it was 53.7%.
Consider `CC(C)c1cc(C(=O)N2CCc3c(sc4nc(N5CCOCC5)nc(N5CCOC(F)(F)C5)c34)C2)c(O)cc1O`, for which the values for the inhibition at 1 µM in test [1], in test [2] and in test [3] were 41.4%, 42.1% and 37.1%, respectively. The inhibition is 27.5% in test [4] and 44.1% in test [5].
In the case of `CC(C)c1cc(C(=O)N2CCc3c(sc4nc(NCCN5CCOCC5)nc(N5CCOCC5)c34)C2)c(O)cc1O`, the inhibition at 1 µM in test [1] came out at 72.2%; in test [2], 78%; in test [3] it was 55.2%. For the same compound, the inhibition in test [4] turned out to be 62.1%; in test [5] it was 68.2%.
Take `CC(C)c1cc(C(=O)N2CCc3c(sc4nc(N5CCN(C)CC5)nc(N5CCOCC5)c34)C2)c(O)cc1O`: the results for the inhibition at 1 µM in test [1], in test [2] and in test [3] were 59.2%, 69.9% and 68%, respectively. Also, the inhibition stood at 63.8% in test [4] and 62.6% in test [5].
With `CC(C)c1cc(C(=O)N2CCc3c(sc4nc(-c5ccc(NC(=O)Nc6ccccc6Cl)cc5)nc(N5CCOCC5)c34)C2)c(O)cc1O`, the inhibition at 1 µM in test [1] is 72.4%; in test [2] it was 73.8%; in test [3], 88.8%. Besides, the inhibition in test [4] turned out to be 64.5%; in test [5], 76.8%.
Regarding `CC(C)c1cc(C(=O)N2CCc3c(sc4nc(N5CCOCC5)nc(NCCN5CCOCC5)c34)C2)c(O)cc1O`, the inhibition at 1 µM in test [1] came out at 58.7%; in test [2] it was 50.2%; in test [3] it was 75%. The inhibition was 81.5% in test [4] and 39.1% in test [5].
As for `CC(C)c1cc(C(=O)N2CCc3c(sc4nc(-c5ccc(NC(=O)N6CCCCC6)cc5)nc(N5CCOCC5)c34)C2)c(O)cc1O`, the inhibition at 1 µM amounted to 54.9% in test [1], 41.6% in test [2] and 45.1% in test [3]. Also, the values for the inhibition in test [4] and in test [5] were 46.7% and 50.4%, respectively.
Taken in the same sequence, the figures for `CCNC(=O)N(C(=O)NCC)c1ccc(-c2nc(N3CCOCC3)c3c4c(sc3n2)CN(C(=O)c2cc(C(C)C)c(O)cc2O)CC4)cc1` were 53.4%, 61%, 63.2%, 55.7% and 53.5%.
Consider `CC(C)c1cc(C(=O)N2CCc3c(sc4nc(-c5ccc(NC(=O)Nc6ccccc6F)cc5)nc(N5CCOCC5)c34)C2)c(O)cc1O`, for which the inhibition at 1 µM was 78.7% in test [1], 70.1% in test [2] and 83.7% in test [3]. The inhibition in test [4] stood at 70%; in test [5] it was 74.8%.
Regarding `CC(C)c1cc(C(=O)N2CCc3c(sc4nc(-c5ccc(N)cc5)nc(N5CCOCC5)c34)C2)c(O)cc1O`, the inhibition at 1 µM in test [1] is 64.4%; in test [2], 70.6%; in test [3], 66.2%. For the same compound, the inhibition in test [4] came out at 57.8%; in test [5], 67.4%.
For `CC(C)c1cc(C(=O)N2CCc3c(sc4nc(N5CCCC5)nc(N5CCOCC5)c34)C2)c(O)cc1O`, the inhibition at 1 µM in test [1] was 43.1%; in test [2] it was 54%; in test [3] it was 42.1%. In addition, the inhibition was found to be 46.6% in test [4] and 52.3% in test [5].
For `CC(C)c1cc(C(=O)N2CCc3c(sc4nc(N5CCOCC5)nc(N5CCN(C)CC5)c34)C2)c(O)cc1O`, the inhibition at 1 µM in test [1] is 37.2%; in test [2], 40.9%; in test [3] it was 44.9%. Besides, the inhibition in test [4] is 40.8%; in test [5], 32.7%.
`CC(C)c1cc(C(=O)N2CCc3c(sc4nc(-c5ccc(NC(=O)Nc6ccccc6)cc5)nc(N5CCOCC5)c34)C2)c(O)cc1O`: the inhibition at 1 µM was 79.7% in test [1], 60.1% in test [2] and 66.2% in test [3]. Also, the inhibition was 59.2% in test [4] and 74.5% in test [5].
Taken in the same sequence, the figures for `CC(C)c1cc(C(=O)N2CCc3c(sc4nc(N5CCOCC5)nc(N5CCCC5)c34)C2)c(O)cc1O` were 47.9%, 57.7%, 46%, 53% and 40.9%.
For `CC(C)c1cc(C(=O)N2CCc3c(sc4nc(N5CCOCC5)nc(NC5CCOCC5)c34)C2)c(O)cc1O`, the inhibition at 1 µM in test [1] was 37.1%; in test [2], 29.5%; in test [3] it was 38.9%. For the same compound, the inhibition in test [4] is 38.2%; in test [5] it was 33.7%.
As to `CC(C)c1cc(C(=O)N2CCc3c(sc4nc(N5CCCCC5)nc(N5CCOCC5)c34)C2)c(O)cc1O`, the inhibition at 1 µM in test [1] worked out at 55%; in test [2], 43.5%; in test [3], 49.5%. Also, the inhibition in test [4] is 46.6%; in test [5] it was 55.7%.
For the compound `CC(C)c1cc(C(=O)N2CCc3c(sc4nc(N5CCOCC5)nc(N5CCCCC5)c34)C2)c(O)cc1O`, the inhibition at 1 µM in test [1] worked out at 55.4%; in test [2], 57.1%; in test [3], 47.6%. The inhibition in test [4] came out at 54.9%; in test [5], 56.6%.
Take `CC(C)c1cc(C(=O)N2CCc3c(sc4nc(-c5ccc(NC(=O)Nc6ccc(F)cc6)cc5)nc(N5CCOCC5)c34)C2)c(O)cc1O`: the results for the inhibition at 1 µM in test [1], in test [2] and in test [3] were 57.8%, 76.8% and 69.8%, respectively. Moreover, the inhibition in test [4] was 63.2%; in test [5], 77.4%.
Taken in the same sequence, the figures for `CC(C)c1cc(C(=O)N2CCc3c(sc4nc(-c5ccc(NC(=O)Nc6cc(F)cc(F)c6)cc5)nc(N5CCOCC5)c34)C2)c(O)cc1O` were 78%, 61.3%, 53.5%, 58.1% and 70.5%.
For `Cc1cccc(NC(=O)Nc2ccc(-c3nc(N4CCOCC4)c4c5c(sc4n3)CN(C(=O)c3cc(C(C)C)c(O)cc3O)CC5)cc2)c1`, in that order: 60.5%, 84.1%, 62.5%, 64.6% and 74.7%.
Regarding `CC(C)c1cc(C(=O)N2CCc3c(sc4nc(N5CCOCC5)nc(N5CCOCC5)c34)C2)c(O)cc1O`, the values for the inhibition at 1 µM in test [1], in test [2] and in test [3] were 65%, 44.8% and 62.7%, respectively. In addition, the figures for the inhibition in test [4] and in test [5] were 42.4% and 68.8%, respectively.
For `CC(C)c1cc(C(=O)N2CCc3c(sc4nc(-c5ccc(NC(=O)Nc6cccc(F)c6)cc5)nc(N5CCOCC5)c34)C2)c(O)cc1O`, in that order: 58.8%, 63.8%, 59.9%, 64.9% and 47.7%.
For `CC(C)c1cc(C(=O)N2CCc3c(sc4nc(NC5CCOCC5)nc(N5CCOCC5)c34)C2)c(O)cc1O`, in that order: 57.6%, 49.7%, 61%, 58% and 57.5%.
